In one experiment the test system is Human rhinovirus sp. Kind of experiment: Antiviral activity against human rhinovirus-14 in HeLa cells. It counts as functional, organism-based.
The next experiment deals with HeLa. Kind of experiment: Cytotoxic activity against HeLa cells using XTT assay. The following applies: Homo sapiens, read-out: TC50 (the source's name). In kind it is functional. For orientation: Tetrazolium dyes change colour on reduction, which living cells bring about.

Where a SMILES comes first, the peptide text is derived from it. [ ]: non-standard residue; d: D form. The star is where a group is joined. Met(O2) = CS(=O)(=O)CC[C@H](N)C(=O)O; hPhe = N[C@@H](CCc1ccccc1)C(=O)O; Cbz = O=C(OCc1ccccc1)*; Boc = CC(C)(C)OC(=O)*

What is called IC50 is the point on the concentration scale where inhibition reaches its midpoint. A low value points to greater potency in that assay. The molecule `CS(=O)(=O)CC[C@@H](C=O)NC(=O)[C@H](Cc1ccccc1)NC(=O)OCc1ccccc1` came in with an IC50 with Human rhinovirus sp. of 3.4 µM. Also, the CC50 in the experiment on HeLa was above 224 µM.

As for `NC(=O)CC[C@@H](C=O)NC(=O)[C@H](Cc1ccccc1)NC(=O)OCc1ccccc1`, the IC50 in the experiment with Human rhinovirus sp. came out at 42 µM. In addition, the CC50 in the experiment on HeLa was above 224 µM.

In the experiment on Human rhinovirus sp., `CSCC[C@@H](C=O)NC(=O)[C@H](CC(C)C)NC(=O)[C@H](CC(C)C)NC(C)=O` (Ac-Leu-Leu-Met-aldehyde) yielded an IC50 of 23.7 µM. In the experiment with HeLa, the CC50 is 37.1 µM.

`CC(=O)N[C@@H](CC(C)C)C(=O)N[C@@H](CC(C)C)C(=O)N[C@H](C=O)CCS(C)(=O)=O` (Ac-Leu-Leu-[Met(O2)]-aldehyde) returned an IC50 with Human rhinovirus sp. of 81.9 µM. Besides, the CC50 in the experiment with HeLa was above 224 µM.

The molecule `CSCC[C@@H](C=O)NC(=O)[C@H](Cc1ccccc1)NC(=O)OC(C)(C)C` (Boc-Phe-Met-aldehyde) had an IC50 in the experiment on Human rhinovirus sp. of 84.1 µM. Besides, in the experiment on HeLa, the CC50 was 65.4 µM.

In the experiment with Human rhinovirus sp., `CC(C)(C)OC(=O)N[C@@H](Cc1ccccc1)C(=O)N[C@H](C=O)CCS(C)(=O)=O` (Boc-Phe-[Met(O2)]-aldehyde) returned an IC50 of 71.3 µM. In addition, the CC50 in the experiment on HeLa amounted to 148 µM.

Molecule `CC(C)C[C@H](NC(=O)[C@@H](NC(=O)OC(C)(C)C)C(C)C)C(=O)N[C@@H](Cc1ccccc1)C(=O)N[C@H](C=O)CCC(N)=O` (Boc-VLFQ-aldehyde) displayed an IC50 with Human rhinovirus sp. of 400 µM. For the same molecule, the CC50 in the experiment with HeLa amounted to 0.6 µM.

As to `CSCC[C@@H](C=O)NC(=O)[C@H](CC(C)C)NC(=O)OCc1ccccc1` (Cbz-Leu-Met-aldehyde), the half-inhibitory concentration (IC50) in the experiment on Human rhinovirus sp. is 46.8 µM. Moreover, the CC50 in the experiment on HeLa came out at 83 µM.

`CC(C)C[C@H](NC(=O)OCc1ccccc1)C(=O)N[C@H](C=O)CCS(C)(=O)=O` (Cbz-Leu-[Met(O2)]-aldehyde) returned an IC50 in the experiment on Human rhinovirus sp. of 39.3 µM. In addition, the CC50 in the experiment on HeLa was above 224 µM.

For `CSCC[C@@H](C=O)NC(=O)[C@H](Cc1ccccc1)NC(=O)OCc1ccccc1` (Cbz-Phe-Met-aldehyde), half-maximal inhibition in the experiment on Human rhinovirus sp. (IC50) was put at 9.7 µM. Further, the CC50 with HeLa worked out at 42.2 µM.

`CSCC[C@@H](C=O)NC(=O)[C@H](CCc1ccccc1)NC(=O)OCc1ccccc1` (Cbz-[hPhe]-Met-aldehyde): in the experiment on Human rhinovirus sp., the midpoint of inhibition, the IC50, lay at 20.3 µM. Besides, in the experiment on HeLa, the CC50 was 13.5 µM.

`CS(=O)(=O)CC[C@@H](C=O)NC(=O)[C@H](CCc1ccccc1)NC(=O)OCc1ccccc1` (Cbz-[hPhe]-[Met(O2)]-aldehyde) gave a 50% inhibitory concentration (IC50) in the experiment with Human rhinovirus sp. of 81.2 µM. Besides, in the experiment with HeLa, the CC50 is 162 µM.

Regarding `CS(=O)(=O)CC[C@@H](C=O)NC(=O)C(Cc1ccccc1)NC(=O)OCc1ccccc1` (single isomer, unassigned), the IC50 in the experiment with Human rhinovirus sp. is above 224 µM. Moreover, the CC50 in the experiment on HeLa is above 224 µM.

In the experiment on Human rhinovirus sp., `CCCC[C@@H](C=O)NC(=O)[C@H](CC(C)C)NC(=O)OCc1ccccc1` [CALPEPTIN] displayed an IC50 of 17.7 µM. For the same molecule, in the experiment on HeLa, the CC50 turned out to be 22.1 µM.

For `CC(=O)N[C@@H](CC(C)C)C(=O)N[C@@H](CC(C)C)C(=O)N[C@H](C=O)CCCNC(=N)N` [LEUPEPTIN], the 50% inhibitory concentration (IC50) with Human rhinovirus sp. is above 224 µM. In addition, in the experiment with HeLa, the CC50 was above 224 µM.
